# Laboratory results: patent publication US20260168987A1, “OBLIQUE LINE SCANNER SYSTEMS AND METHODS FOR HIGH THROUGHPUT SINGLE MOLECULE TRACKING IN LIVING CELLS” (EIKON THERAPEUTICS, INC., priority 2022, published 2026)
# System: Halo-PCNA U2OS cells
# Assay: Cell cycle phase assignment by machine learning model in Halo-PCNA U2OS cells
# Format: cell-based
# Settings: 2 mM Thymidine (S-phase block) or RO-3306 (G2-M block) per FIG. 20B legend
# Method: Time-lapse microscopy was conducted on Halo-PCNA labeled with 50 nM JFX650, to achieve near-saturating labeling, for 12 hours at 12 frames per hour (FIG. 21A). A machine learning model was then trained using both manually assigned cell stages and time-based progression resulting in both a G1, early S, mid S, late S, G2 and mitosis classifier as well as a regression prediction across the continuum of the cell cycle (FIG. 21B). The predicted cell cycle classification performed well as compared to manual annotation (FIG. 21C). Clear progression of individual cells through the cell cycle was observed when regression prediction was plotted across the time series (FIG. 21D). […] When cells in each cell phase were analyzed separately, it became apparent that the slow-moving population of PCNA was exclusively found in cell predicted to be in S-phase and that there was a marked decrease in the fast-moving population (FIG. 20E). Mean diffusion coefficient of PCNA was then measured for 4,081 individual cells to characterize heterogeneity across the cell population, which is described in large part by cell cycle (FIG. 20F).
# Cell cycle as provided above can be automatically determined using an image (e.g., an image of JF549-labeled PCNA). […]
row,Structure (SMILES),fraction of cells assigned to cell phases
1,Cc1cn([C@H]2C[C@H](O)[C@@H](CO)O2)c(=O)[nH]c1=O [thymidine],expected enrichment in the fraction of cells assigned to the respective cell phases
2,O=C1NC(=NCc2cccs2)S/C1=C\c1ccc2ncccc2c1 [RO-3306],expected enrichment in the fraction of cells assigned to the respective cell phases
